From patent US20100298141A1, “SUBSTITUTED PYRIDINE N-OXIDE HERBICIDES” (E. I. DU PONT DE NEMOURS AND COMPANY, priority 2007, published 2010)

What was measured:
[1] = tested on: giant foxtail; assay: Test C pre-/postemergence test; format: in vivo, Setaria faberii
Method in brief: (§1)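 Test chemicals were formulated with surfactant in a non-phytotoxic solvent and sprayed both on freshly planted seeds (preemergence) and on 1- to 4-leaf plants of 2–18 cm (postemergence). Flooded-paddy pots received compound directly into 3 cm of standing water, maintained for the test.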

[2] = tested on: yellow nutsedge; assay: Test C pre-/postemergence test; format: in vivo, Cyperus esculentus
Method in brief: as §1

[3] = tested on: redroot pigweed; assay: Test A pre-/postemergence greenhouse test; format: in vivo, Amaranthus retroflexus; conditions: for Pigweed plant response rating: 0 to 100 scale
Method in brief: (§2)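 Two application timings were run side by side in the greenhouse. Before emergence, compound went onto the soil surface of loam–sand pots as a directed spray; after emergence, plants at 2–10 cm and the one- to two-leaf stage were treated. Visual injury versus controls was rated at approximately day ten.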

[4] = tested on: wheat; assay: Test C pre-/postemergence test; format: in vivo, Triticum aestivum
Method in brief: as §1

[5] = tested on: morningglory; assay: Test C pre-/postemergence test; format: in vivo, Ipomoea coccinea
Method in brief: as §1

[6] = tested on: wild oat; assay: Test C pre-/postemergence test; format: in vivo, Avena fatua
Method in brief: as §1

[7] = tested on: corn; assay: Test C pre-/postemergence test; format: in vivo, Zea mays
Method in brief: as §1

[8] = tested on: catchweed bedstraw; assay: Test C pre-/postemergence test; format: in vivo, Galium aparine
Method in brief: as §1

[9] = tested on: rice; assay: Test C flooded paddy test; format: in vivo, Oryza sativa; conditions: Flood
Method in brief: (§3)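 Compound was added to standing water 3 cm above soil, flood maintained, and plants held in a greenhouse before visual scoring against controls at 13 to 15 days.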

[10] = tested on: duck salad; assay: Test C flooded paddy test; format: in vivo, Heteranthera limosa; conditions: Flood
Method in brief: as §3

[11] = tested on: velvetleaf; assay: Test C pre-/postemergence test; format: in vivo, Abutilon theophrasti
Method in brief: as §1

[12] = tested on: downy brome; assay: Test C pre-/postemergence test; format: in vivo, Bromus tectorum
Method in brief: as §1

[13] = tested on: wheat; assay: Test A pre-/postemergence greenhouse test; format: in vivo, Triticum aestivum; conditions: for Wheat plant response rating: 0 to 100 scale
Method in brief: as §2

[14] = tested on: eastern black nightshade; assay: Test C pre-/postemergence test; format: in vivo, Solanum ptycanthum
Method in brief: as §1

[15] = tested on: velvetleaf; assay: Test A pre-/postemergence greenhouse test; format: in vivo, Abutilon theophrasti; conditions: for Velvetleaf plant response rating: 0 to 100 scale
Method in brief: as §2

[16] = tested on: woolly cupgrass; assay: Test C pre-/postemergence test; format: in vivo, Eriochloa villosa
Method in brief: as §1

[17] = tested on: johnsongrass; assay: Test C pre-/postemergence test; format: in vivo, Sorghum halepense
Method in brief: as §1

[18] = 62 g ai/ha, Preemergence, scale 0 to 100
[19] = 125 g ai/ha, preemergence, scale 0 (no effect) to 100 (complete control)
[20] = Preemergence, 31 g ai/ha, scale 0 to 100 (0 no effect, 100 complete control)
[21] = preemergence, 250 g ai/ha, scale 0 (no effect) to 100 (complete control)
[22] = Postemergence, 125 g ai/ha, 0 is no effect, 100 is complete control
[23] = Postemergence, 500 g ai/ha, 0 is no effect, 100 is complete control
[24] = Preemergence, 125 g ai/ha, 0 no effect, 100 complete control
[25] = Preemergence, 500 g ai/ha, 0 to 100 scale where 0 is no effect and 100 is complete control
[26] = 31 g ai/ha, scale 0 to 100 (0 no effect, 100 complete control)
[27] = 62 g ai/ha, scale 0 to 100, 0 no effect, 100 complete control, 13 to 15 days
[28] = 125 g ai/ha, scale 0 to 100, 0 no effect, 100 complete control, 13 to 15 days
[29] = 250 g ai/ha, scale 0 to 100, 0 no effect, 100 complete control, 13 to 15 days

In the case of Cc1cc[n+]([O-])c(S(=O)(=O)C(Cl)c2c(C(F)(F)F)nn(C)c2OCC(F)(F)F)c1 (racemic) [Compound 37], the “Foxtail, Giant plant response rating” value [1, 18] is reported as 70, the “Foxtail, Giant plant response rating” value [1, 19] is reported as 85 and the “Plant response rating, Foxtail, Giant” value [1, 20] is reported as 20. For the same molecule, the “Foxtail, Giant plant response rating” value [1, 21] was 100, the “Nutsedge, Yellow plant response rating” value [2, 18] was 0 and the “Nutsedge, Yellow plant response rating” value [2, 19] was 80. The “Plant response rating, Nutsedge, Yellow” value [2, 20] was 0, the “Nutsedge, Yellow plant response rating” value [2, 21] was 80 and the “Pigweed plant response rating” value [3, 22] was 20. For the same molecule, the “Pigweed plant response rating” value [3, 23] was 50, the “Pigweed plant response rating” value [3, 24] was 100 and the “Plant response rating, Pigweed” value [3, 25] was 100. For the same molecule, the “Plant response rating, Wheat” value [4, 20] was 0, the “Wheat plant response rating” value [4, 21] was 30 and the “Morningglory plant response rating” value [5, 18] was 0. For the same molecule, the “Morningglory plant response rating” value [5, 19] was 0, the “Plant response rating, Morningglory” value [5, 20] was 0 and the “Morningglory plant response rating” value [5, 21] was 60. For the same molecule, the “Plant response rating, Oat, Wild” value [6, 20] was 0, the “Oat, Wild plant response rating” value [6, 21] was 60 and the “Corn plant response rating” value [7, 18] was 5. For the same molecule, the “Corn plant response rating” value [7, 19] was 50, the “Plant response rating, Corn” value [7, 20] was 0 and the “Corn plant response rating” value [7, 21] was 90. The “Plant response rating, Galium” value [8, 20] was 80, the “Galium plant response rating” value [8, 21] was 80 and the “Plant response rating, Rice” value [9, 26] was 15. The “Plant response rating, Rice” value [9, 27] was 15, the “Plant response rating, Rice” value [9, 28] was 25 and the “Plant response rating, Rice” value [9, 29] was 70. For the same molecule, the “Plant response rating, Ducksalad” value [10, 26] was 20, the “Plant response rating, Ducksalad” value [10, 27] was 40 and the “Plant response rating, Ducksalad” value [10, 28] was 85. For the same molecule, the “Plant response rating, Ducksalad” value [10, 29] was 95, the “Velvetleaf plant response rating” value [11, 18] was 0 and the “Velvetleaf plant response rating” value [11, 19] was 10. For the same molecule, the “Plant response rating, Velvetleaf” value [11, 20] was 0, the “Velvetleaf plant response rating” value [11, 21] was 70 and the “Plant response rating, Bromegrass, Downy” value [12, 20] was 0. The “Bromegrass, Downy plant response rating” value [12, 21] was 60, the “Wheat plant response rating” value [13, 22] was 0 and the “Wheat plant response rating” value [13, 23] was 50. The “Wheat plant response rating” value [13, 24] was 20, the “Plant response rating, Wheat” value [13, 25] was 50 and the “Nightshade plant response rating” value [14, 18] was 80. The “Nightshade plant response rating” value [14, 19] was 85, the “Plant response rating, Nightshade” value [14, 20] was 80 and the “Nightshade plant response rating” value [14, 21] was 90. The “Velvetleaf plant response rating” value [15, 22] was 0, the “Velvetleaf plant response rating” value [15, 23] was 10 and the “Velvetleaf plant response rating” value [15, 24] was 40. For the same molecule, the “Plant response rating, Velvetleaf” value [15, 25] was 80, the “Cupgrass, Woolly plant response rating” value [16, 18] was 80 and the “Cupgrass, Woolly plant response rating” value [16, 19] was 98. For the same molecule, the “Plant response rating, Cupgrass, Woolly” value [16, 20] was 40, the “Cupgrass, Woolly plant response rating” value [16, 21] was 100 and the “Johnsongrass plant response rating” value [17, 18] was 80. The “Johnsongrass plant response rating” value [17, 19] was 80, the “Plant response rating, Johnsongrass” value [17, 20] was 50 and the “Johnsongrass plant response rating” value [17, 21] was 95.
